Assay results: PMC10510246, “Inhibitory effect of O-propargyllawsone in A549 lung adenocarcinoma cells” (BMC Complementary Medicine and Therapies, 2023)
Structures can show the parent of a compound that is named as a salt. Where two headings read alike, the source gives them in different places. One block for each molecule: values may come before it.

Columns and labels:
[1] = test system: lung adenocarcinoma (A549) cells; assay: Sulforhodamine B (SRB) cell growth inhibition assay, A549; assay type: cell-based; details: for IC50: A549, SRB, 72 h, value (95% confidence interval), read-out: IC50 (maximum 50% inhibitory concentration of cell growth)
Method: (§1) The cell lines of lung adenocarcinoma (A549), melanoma (B16-F10) and glioma (C6) were purchased from the Federal University of Rio de Janeiro. Cells were maintained in cell culture flasks in Dulbeccos's Modified Eagle Medium (DMEM) supplemented with 10% Fetal Bovine Serum (FBS) and 1% antibiotic (10,000 U/mL penicillin; […] streptomycin) and incubated at 37 °C in an atmosphere of 5% CO2. After reaching the necessary confluence for carrying out the experiments, the medium was removed, and the cells detached from the bottle using a 0.25% Trypsin–EDTA solution for a period of 1 to 15 min. After this step, the Trypsin–EDTA solution was inactivated with culture medium and the cells were centrifuged, with rotation of 153 G for 10 min at 4 °C. The pellet formed was resuspended in culture medium and the cells were counted in a Neubauer chamber to carry out the experiments.
(§2) For this experiment, A549, B16-F10 and C6 cells were seeded in 96-well plates at a density of 1 × 10^4 cells/well. After an incubation period of 24 h in a humidified incubator at 37 °C with 5% CO2 atmosphere for adhesion, the cells were treated with lawsone and lawsone derivatives (compounds 1, 2 and 3) for 72 h with concentrations from 25 µM to 0.8 µM. Cells were fixed with 100 μL of 30% trichloroacetic acid for 1 h in a refrigerator at 4 °C. Then, the plate was washed 4 times with water and set to dry. After the drying period, 100 μL of 0.057% Sulforhodamine B (SRB) solution (w/v) dissolved in 1% acetic acid was added for 30 min at room temperature. Then the plate was washed 4 times with 1% acetic acid to remove excess dye. After drying, 200 μL of TRIS 10 mM pH 10.5 was added to dilute the SRB for 30 min. The reading was made in a spectrophotometer (Biotek—H1 Synergy) with a wavelength of 510 nm.
(§3) Based on the inhibitory degree of the derivatives, the IC50 of the compounds were calculated. The IC50 is the concentration capable of inhibiting 50% of cell growth. The compound that presented the lowest IC50 was compound 1, being selected for evaluation in the following experiments. For this, IC50 values were used as a basis to define concentrations of half of the IC50, the IC50 value and twice the IC50.

melanoma (B16-F10) cells = assay: Sulforhodamine B (SRB) cell growth inhibition assay, B16-F10; assay type: cell-based; details: for IC50: B16-F10, SRB, 72 h, value (95% confidence interval), read-out: IC50 (maximum 50% inhibitory concentration of cell growth)
Method: as §1, §2, §3

glioma (C6) cells = assay: Sulforhodamine B (SRB) cell growth inhibition assay, C6; assay type: cell-based; details: for IC50: C6, SRB, 72 h, value (95% confidence interval), read-out: IC50 (maximum 50% inhibitory concentration of cell growth)
Method: as §1, §2, §3

A549 cells [2] = assay: Giemsa staining, morphological changes, A549; assay type: cell-based; details: A549, 2.2 and 4.4 μM, 24 h
Method: (§4) A549, B16-F10 and C6 cells were seeded on coverslips in 24-well plates at a density of 2 × 10^4 cells/well. After 24 h, cells were treated with the compound 1 derivative using 1.1, 2.2 and 4.4 μM for A549 and C6, and 0.75, 1.5 and 3 µM for B16-F10 for 24 h. After treatment, cells were washed twice with phosphate-buffered saline (PBS) and fixed with methyl alcohol for 3 min. Then cells were stained with Giemsa for 1 min. The slides were evaluated under an optical microscope (Olympus) and the images were captured at 400 × magnification.

B16-F10 cells = assay: Giemsa staining, morphological changes, B16-F10; assay type: cell-based; details: 24 h
Method: as §4

C6 cells = assay: Giemsa staining, morphological changes, C6; assay type: cell-based; details: 24 h
Method: as §4

Hemolytic assay = assay type: cell-based, human; details: human erythrocytes (2% suspension); human erythrocytes, 110 µM, 1 h; read-out: hemolysis percentage
Method: (§5) The hemolytic activity of the compound 1 was tested using human erythrocytes from healthy volunteers. […] Triton X 100 (0.1%) and Dimethyl sulfoxide (0.1%) were used as positive and negative hemolysis controls, respectively. Erythrocytes were kept under agitation at a temperature of 37 °C for 1 h. After this time, the plate was centrifuged at 405 × g for 5 min and 0.15 mL of the transferred supernatant was read in a spectrophotometer (Biotek—H1 Synergy) with an absorbance of 540 nm.

human erythrocytes = assay: Hemolytic assay; assay type: cell-based
Method: as §5

A549 cells [3] = assay: Clonogenic assay; assay type: cell-based; details: Homo sapiens, 72 h treatment, read-out: inhibition of colony formation
Method: A549 cells were seeded in a 6-well plate at a density of 150 cells/well and incubated in an incubator with 5% CO2 atmosphere at 37 °C. After 24 h, cells were treated with the compound 1 at concentrations of 1.1, 2.2 and 4.4 µM for 72 h. Dimethyl sulfoxide 0.02% and Doxorubicin 0.2 μM were used as negative control and positive control respectively. The treatment was removed and replaced with a supplemented DMEM medium. The cells were incubated in an atmosphere of 5% CO2 at 37 °C. After 6 days, cells were fixed with methanol + acetic acid (3:1) for 5 min and stained with 0.5% crystal violet in water for 30 min. The plates were photographed, and the images were analyzed using ImageJ 1.46 software.

A549 cells [4] = assay: Wound-healing assay (cell migration); assay type: cell-based; details: for wound closure: A549, 4.4 µM
Method: A549 cells were seeded in a 12-well plate at a density of 4 × 10^5 cells/well and incubated in an incubator with 5% CO2 atmosphere at 37 °C for 24 h. After the incubation period, a straight-line wound was made with the aid of a p200 tip, the supernatant was discarded, and the wells were washed twice with 1 × PBS to remove loose cells. Cells were treated with compound 1 at concentrations of 1.1, 2.2 and 4.4 µM. 0.02% Dimethyl sulfoxide and 0.2 μM Doxorubicin were used as a negative control and positive control, respectively. Images of wound closure were acquired at 0, 24 and 48 h of treatment with an Olympus microscope. The images were analyzed using the ImageJ software version 1.46.

A549 cells [5] = assay: Annexin V-FITC/PI assay (flow cytometry); assay type: cell-based; details: 24 h
Method: A549 cells were seeded in 12-well plates in DMEM medium supplemented with FBS and 1% antibiotic (10,000 U/ml penicillin; […] streptomycin) with a density equal to 2 × 10^5 cells/well and incubated for 24 h. Then, the cells were treated with the compound 1 at concentrations of 1.1, 2.2 and 4.4 µM, for 24 h. Dimethyl sulfoxide 0.02% was used as negative control and 0.2 μM Doxorubicin were used as positive control. After treatment, cells were detached with Accutase solution, transferred to tubes, and washed with PBS. After washing the cells were stained with Annexin V-FITC/PI according to the manufacturer. Samples were analyzed by flow cytometry (Attune NxT Acoustic Focusing Cytometer, Thermo Fisher Scientific). Cells without labeling were considered viable, cells positive only for Annexin V/FITC were considered cells in apoptosis, cells with double labeling for Annexin V/FITC and propidium iodide were considered cells in late apoptosis and cells positive only for iodide propidium were considered cells in necrosis.

Compound: C#CCOC1=CC(=O)c2ccccc2C1=O [Compound 1, O-propargyllawsone]
growth inhibition category ([1]; A549, 72 h, concentrations from 25 to 6.3 µM): high (high inhibition when above 75%) | IC50 [1]: 2.2 µM | IC50 ([1]; Homo sapiens, A549, 72 h): < 2.5 µM | inhibitory potential relative to lawsone ([1]; compared with lawsone IC50, cell line not specified): at least 10 times | growth inhibition category (melanoma (B16-F10) cells; B16-F10, 72 h, concentrations from 25 to 6.3 µM): high (high inhibition when above 75%) | IC50 (melanoma (B16-F10) cells): 1500 nM | IC50 (melanoma (B16-F10) cells; Mus musculus, B16-F10, 72 h): < 2200 nM | growth inhibition category (glioma (C6) cells; C6, 72 h, concentrations from 25 to 6.3 µM): high (high inhibition when above 75%) | IC50 (glioma (C6) cells): 2.2 µM | IC50 (glioma (C6) cells; Rattus norvegicus, C6, 72 h): < 2.2 µM | morphological changes (Giemsa) (A549 cells [2]): reduction in cytoplasm and apoptotic cells | morphological changes (Giemsa) (B16-F10 cells; B16-F10, 0.75 µM): reduced cytoplasmic volume and the appearance of apoptotic cells | morphological changes (Giemsa) (B16-F10 cells; B16-F10, 1.5 and 3 µM): reduction in cytoplasm and apoptotic cells | morphological changes (Giemsa) (C6 cells; C6, 1.1 µM): reduced cytoplasmic volume and the appearance of apoptotic cells | morphological changes (Giemsa) (C6 cells; C6, 2.2 and 4.4 μM): reduction in cytoplasm and apoptotic cells | hemolysis at 1 h, 110 µM (Hemolytic assay): < 0.5% | toxicity to erythrocytes (human erythrocytes; highest concentration tested of 110 µM): not toxic to erythrocytes | hemolytic effect (human erythrocytes; human erythrocytes, 13.75, 27.5 and 55 µM, 1 h): no hemolytic effect | inhibition at 1.1 µM (A549 cells [3]; A549, 1.1 µM, compared to the negative control): 31.1% | inhibition at 2.2 µM (A549 cells [3]; A549, 2.2 µM, compared to the negative control): 82.1% | inhibition at 4.4 µM (A549 cells [3]; A549, 4.4 µM, compared to the negative control): 98.1% | effect on cell migration (A549 cells [4]; A549, 1.1 µM, 24 or 48 h): no significant reduction of migration | reduction of wound closure (A549 cells [4]; A549, 2.2 µM, 48 h): 33% | wound closure (A549 cells [4]; 24 h): 18% | wound closure (A549 cells [4]; 48 h): 56% | changes in the percentage of living, apoptotic or necrotic cells (A549 cells [5]; A549, 1.1 µM and 2.2 µM): not able to induce significant changes | cells undergoing apoptosis (A549 cells [5]; A549, 4.4 µM): 47.8% | cells undergoing necrosis (A549 cells [5]; A549, 4.4 µM): 39.7% | percentage of living cells (A549 cells [5]; A549, 4.4 µM): 12.4%

Compound: O=C1C=C(OCc2cn(-c3ccccc3)nn2)C(=O)c2ccccc21 [Compound 2]
growth inhibition category ([1]; A549, 72 h, concentrations 12.5 to 0.8 µM): low (low when below 50%) | IC50 [1]: 14.9 µM | IC50 ([1]; Homo sapiens, A549, 72 h): > 14 µM | inhibition at 25 µM ([1]; Homo sapiens, A549, 72 h, 25 µM, read-out: growth inhibition category): 50 to 75% | growth inhibition category (melanoma (B16-F10) cells; B16-F10, 72 h, concentrations 12.5 to 0.8 µM): low (low when below 50%) | IC50 (melanoma (B16-F10) cells): 14200 nM | IC50 (melanoma (B16-F10) cells; Mus musculus, B16-F10, 72 h): > 14000 nM | inhibition at 25 µM (melanoma (B16-F10) cells; Mus musculus, B16-F10, 72 h, 25 µM, read-out: growth inhibition category): 50 to 75% | growth inhibition category (glioma (C6) cells; C6, 72 h, concentrations 12.5 to 0.8 µM): low (low when below 50%) | IC50 (glioma (C6) cells; listed as compound 2): > 14 µM | IC50 (glioma (C6) cells): 43.4 µM

Compound: O=C1C=C(OCc2cn(-c3ccc(Cl)cc3)nn2)C(=O)c2ccccc21 [Compound 3]
growth inhibition category ([1]; A549, 72 h, all concentrations tested (25 µM to 0.8 µM)): low (low when below 50%) | growth inhibition category (melanoma (B16-F10) cells; B16-F10, 72 h, all concentrations tested (25 µM to 0.8 µM)): low (low when below 50%) | growth inhibition category (glioma (C6) cells; C6, 72 h, all concentrations tested (25 µM to 0.8 µM)): low (low when below 50%)

Now from value to molecule, other results behind:

IC50 [1]: < 0.6 µM | IC50 (melanoma (B16-F10) cells; listed as Doxorrubicin): 600 nM | IC50 (melanoma (B16-F10) cells; Mus musculus, B16-F10, 72 h): < 600 nM
Compound: COc1cccc2c1C(=O)c1c(O)c3c(c(O)c1C2=O)C[C@@](O)(C(=O)CO)C[C@@H]3O[C@H]1C[C@H](N)[C@H](O)[C@H](C)O1 [Doxorubicin, Doxorubicin Hydrochloride, reference compound]
inhibition at 0.2 µM (A549 cells [3]; A549, 0.2 μM (positive control)): 96.1% | wound closure (wound restored) (A549 cells [4]; A549, 0.2 μM (positive control), 48 h): 78% | changes in the percentage of living, apoptotic or necrotic cells (A549 cells [5]; A549, 0.2 µM): not possible to observe changes

IC50 ([1]; Homo sapiens, A549, 72 h): 53 µM | IC50 (glioma (C6) cells; Rattus norvegicus, C6, 72 h): 22.6 µM
Compound: O=C1C=C(O)C(=O)c2ccccc21 [Lawsone, 2-hydroxy-1,4-naphtoquinone]
